Like-named read-outs stand apart in the source and are kept apart here.
Tests used:
[1] = clinical study: plasma labeled and unlabeled PG by LC-MS/MS after vaporizer use or second-hand exposure; assay type: in vivo, human
Description: A clinical study protocol was generated. The objectives of this study were to measure C13-labeled PG in blood and to evaluate the extent of second-hand exposure to PG and nicotine during use of a commercially-available electronic nicotine delivery system (vaporizer).
All subjects completed screening procedures and checked in to the clinic on the morning of the Test Visit. All subjects remained in the clinic until the completion of the final study procedure later that day.
Following completion of check-in procedures, all subjects were seated in a room together approximately 30 minutes prior to the start of product administration. Subjects in the vaping group began using the vaporizers as directed by the clinic staff—one inhalation at least 3 seconds in duration every 30 seconds for a total of 30 inhalations. Each vaporizer contained a 1.8 v/v % nicotine solution in a PG vehicle. […]
The samples were kept at room temperature prior to centrifuge, and were centrifuged at 2500 RPM for 15 minutes at 4° C. within 60 minutes of collection. […] (+/− 10° C.) or below (within 90 minutes from collection) until analyzed by Celerion Bioanalytical Services. […]
Plasma PG (labeled and unlabeled) and nicotine were analyzed by LC-MS/MS using analytical methods with appropriate quality controls in accordance with FDA Good Laboratory Practice (GLP) regulations (Title 21 CFR Part 58). […]

[2] = in vivo; cited from earlier work
[3] = test system: rabbit; details: cited from earlier work

Question: With `[13CH3][13CH](O)[13CH2]O` (stereo not drawn) [Species A3, Propyleneglycol-^13C3] as the molecule, how does the “blood concentration of labeled propylene glycol” value ([1]; non-vaping subjects (Subjects 4-6), in room with vaping subjects, FIG. 2) read?
Answer: essentially no detectable levels

Question: For propane-1,2-diol [propylene glycol], which “excreted by the kidneys unchanged or as the glucuronide conjugate” value [2] is on record?
Answer: approximately 45%

Question: And the half-life [2]?
Answer: approximately 4 hours

Question: What about the “acute oral toxicity LD50” value ([3]; oral) of the same molecule?
Answer: 18500 mg/kg

Question: And the “blood concentration of unlabeled propylene glycol” value ([1]; all subjects (Subjects 1-6), meal high in PG at about 4 hours, FIG. 3)?
Answer: significant

Question: With `OCC(O)CO` [glycerol, propane-1,2,3-triol] as the molecule, how does the “acute oral toxicity LD50” value ([3]; in vivo, po) read?
Answer: 10,000 mg/kg

Reference: patent US9645134B1, “Isotopically-labeled solvents and the use of same in testing e-cigarettes” (Celerion, Inc., priority 2013, dated 2017)
